Here are results for one compound from PMC7206119, “RIP1 inhibition blocks inflammatory diseases but not tumor growth or metastases” (Cell Death and Differentiation, 2019).

Assay in all cases: biochemical
What all share (design): DiscoverX kinase panel, active-site competition binding (KINOMEscan type), percent of control at one concentration
What all share (conditions): competition binding, percent of control

For one test, the target named is GSK3A (Homo sapiens, UniProt P49840). The text has this: (§1) To investigate the potential therapeutic benefit of inhibiting RIP1, we developed GNE684 or (S)-N-((S)-7-methoxy-1-methyl-2-oxo-2,3,4,5-tetrahydro-1H-pyrido[3,4-b]azepin-3-yl)-5-phenyl-6,7-dihydro-5H-pyrrolo[1,2-b][1,2,4]triazole-2-carboxamide with cross-species potency against RIP1, exquisite kinase selectivity, and favorable pharmacological properties (Fig. 1a–h, S1, Tables S1 and S2, SI file 1). […] (Fig. 1b, S1, and Table S1). […] GNE684 inhibited human RIP1 potently in vitro, and mouse and rat RIP1 with slightly less potency (Fig. 1d). Accordingly, it inhibited TNF-induced necroptosis in human HT-29, mouse L929, or rat H9c2 cells (Fig. 1e). The cellular potency of GNE684 was confirmed in a human whole blood assay using TBZ (TNF, IAP antagonist BV6, and pan-caspase inhibitor zVAD) or LZ (LPS plus zVAD) to trigger necroptosis and the release of IL-1α and IL-1β (Fig. 1f).

The target of a further test is T1, RIPK5 (Homo sapiens, UniProt Q6XUX3).
T1 construct: gene DSTYK
T1 sequence (Q6XUX3 whole entry): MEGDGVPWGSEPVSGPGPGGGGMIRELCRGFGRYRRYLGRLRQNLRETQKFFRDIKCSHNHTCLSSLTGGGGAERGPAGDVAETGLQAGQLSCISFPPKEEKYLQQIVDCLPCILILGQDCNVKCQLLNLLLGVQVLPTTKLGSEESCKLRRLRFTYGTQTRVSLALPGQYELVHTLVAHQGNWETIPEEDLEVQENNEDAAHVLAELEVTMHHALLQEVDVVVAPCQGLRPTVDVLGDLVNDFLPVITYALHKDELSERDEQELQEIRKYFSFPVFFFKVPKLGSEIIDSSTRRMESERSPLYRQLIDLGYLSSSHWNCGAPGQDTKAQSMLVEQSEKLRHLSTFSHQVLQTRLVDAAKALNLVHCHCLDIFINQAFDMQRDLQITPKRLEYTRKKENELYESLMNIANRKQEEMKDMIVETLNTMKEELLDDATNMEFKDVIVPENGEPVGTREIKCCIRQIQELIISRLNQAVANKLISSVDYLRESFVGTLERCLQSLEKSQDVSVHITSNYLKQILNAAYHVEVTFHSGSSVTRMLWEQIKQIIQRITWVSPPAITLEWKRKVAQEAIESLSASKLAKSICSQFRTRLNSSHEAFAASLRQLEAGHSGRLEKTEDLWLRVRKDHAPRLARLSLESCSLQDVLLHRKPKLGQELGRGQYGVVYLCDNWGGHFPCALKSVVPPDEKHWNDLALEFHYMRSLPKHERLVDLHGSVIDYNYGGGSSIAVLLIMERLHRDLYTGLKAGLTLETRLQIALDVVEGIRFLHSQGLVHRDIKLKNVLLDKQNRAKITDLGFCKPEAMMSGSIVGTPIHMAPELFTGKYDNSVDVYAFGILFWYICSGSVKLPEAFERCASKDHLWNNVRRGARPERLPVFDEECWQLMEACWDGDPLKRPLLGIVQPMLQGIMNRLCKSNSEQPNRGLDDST
Description: as §1

A further test addresses T2, NIK (Homo sapiens, UniProt Q99558).
T2 construct: gene MAP3K14
Description: as §1

The next test deals with T3, YANK1 (Homo sapiens, UniProt Q8WU08).
T3 construct: gene STK32A
T3 sequence (Q8WU08 whole entry): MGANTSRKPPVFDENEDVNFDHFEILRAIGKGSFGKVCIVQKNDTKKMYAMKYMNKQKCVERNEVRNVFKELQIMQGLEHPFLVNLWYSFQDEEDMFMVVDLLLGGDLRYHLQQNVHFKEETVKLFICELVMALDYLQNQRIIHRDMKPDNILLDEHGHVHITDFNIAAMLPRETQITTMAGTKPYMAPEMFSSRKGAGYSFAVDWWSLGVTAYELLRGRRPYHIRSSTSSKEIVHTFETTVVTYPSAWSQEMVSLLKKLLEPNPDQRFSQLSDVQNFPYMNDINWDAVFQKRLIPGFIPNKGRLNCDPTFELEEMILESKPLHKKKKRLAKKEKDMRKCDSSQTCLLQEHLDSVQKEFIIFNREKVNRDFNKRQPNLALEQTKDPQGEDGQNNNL
Description: as §1

The next test has as its target MAP3K15 (Homo sapiens, UniProt Q6ZN16).
Description: as §1

The next test addresses T4, NIM1 (Homo sapiens, UniProt Q8IY84).
T4 construct: gene NIM1K
Description: as §1

The target of another test is MAP3K3 (Homo sapiens, UniProt Q99759).
Description: as §1

For another test, the target named is DAPK2 (Homo sapiens, UniProt Q9UIK4).
Description: as §1

In a further test the target is FLT3(ITD,D835V) (Homo sapiens, UniProt P36888, D835V/ITD).
Description: as §1

Another test addresses TEC (Homo sapiens, UniProt P42680).
Description: as §1

Another test concerns the target EGFR(T790M) (Homo sapiens, UniProt P00533, T790M).
Description: as §1

In a further test the target is PHKG2 (Homo sapiens, UniProt P15735).
Sequence of PHKG2 (P15735 whole entry): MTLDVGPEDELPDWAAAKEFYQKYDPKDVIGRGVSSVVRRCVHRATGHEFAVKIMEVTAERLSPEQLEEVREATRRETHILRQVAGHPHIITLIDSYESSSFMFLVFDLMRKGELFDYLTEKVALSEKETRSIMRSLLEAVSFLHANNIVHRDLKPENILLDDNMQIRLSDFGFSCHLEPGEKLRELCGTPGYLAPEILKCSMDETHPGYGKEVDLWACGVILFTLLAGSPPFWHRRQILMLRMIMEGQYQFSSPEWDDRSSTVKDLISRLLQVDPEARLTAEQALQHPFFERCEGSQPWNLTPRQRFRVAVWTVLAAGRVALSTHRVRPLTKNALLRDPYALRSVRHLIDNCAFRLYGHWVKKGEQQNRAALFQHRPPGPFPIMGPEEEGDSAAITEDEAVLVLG
Description: as §1

The next test deals with T5, DRAK2 (Homo sapiens, UniProt O94768).
T5 construct: gene STK17B
Description: as §1

For the next test, the target named is KIT(V559D,V654A) (Homo sapiens, UniProt P10721, V559D/V654A).
Description: as §1

The next test has as its target MET (Homo sapiens, UniProt P08581).
Description: as §1

For a further test, the target named is T6, MRCKA (Homo sapiens, UniProt Q5VT25).
T6 construct: gene CDC42BPA
Description: as §1

The target in a further test is SBK1 (Homo sapiens, UniProt Q52WX2).
Description: as §1

In the next test the target is PIK3C2B (Homo sapiens, UniProt O00750).
Description: as §1

The next test deals with KIT(V559D) (Homo sapiens, UniProt P10721, V559D).
Description: as §1

In a further test the target is MKNK1 (Homo sapiens, UniProt Q9BUB5).
Description: as §1

A further test concerns the target TNK2 (Homo sapiens, UniProt Q07912).
Description: as §1

Sequence of EGFR(T790M) (P00533 whole entry T790M): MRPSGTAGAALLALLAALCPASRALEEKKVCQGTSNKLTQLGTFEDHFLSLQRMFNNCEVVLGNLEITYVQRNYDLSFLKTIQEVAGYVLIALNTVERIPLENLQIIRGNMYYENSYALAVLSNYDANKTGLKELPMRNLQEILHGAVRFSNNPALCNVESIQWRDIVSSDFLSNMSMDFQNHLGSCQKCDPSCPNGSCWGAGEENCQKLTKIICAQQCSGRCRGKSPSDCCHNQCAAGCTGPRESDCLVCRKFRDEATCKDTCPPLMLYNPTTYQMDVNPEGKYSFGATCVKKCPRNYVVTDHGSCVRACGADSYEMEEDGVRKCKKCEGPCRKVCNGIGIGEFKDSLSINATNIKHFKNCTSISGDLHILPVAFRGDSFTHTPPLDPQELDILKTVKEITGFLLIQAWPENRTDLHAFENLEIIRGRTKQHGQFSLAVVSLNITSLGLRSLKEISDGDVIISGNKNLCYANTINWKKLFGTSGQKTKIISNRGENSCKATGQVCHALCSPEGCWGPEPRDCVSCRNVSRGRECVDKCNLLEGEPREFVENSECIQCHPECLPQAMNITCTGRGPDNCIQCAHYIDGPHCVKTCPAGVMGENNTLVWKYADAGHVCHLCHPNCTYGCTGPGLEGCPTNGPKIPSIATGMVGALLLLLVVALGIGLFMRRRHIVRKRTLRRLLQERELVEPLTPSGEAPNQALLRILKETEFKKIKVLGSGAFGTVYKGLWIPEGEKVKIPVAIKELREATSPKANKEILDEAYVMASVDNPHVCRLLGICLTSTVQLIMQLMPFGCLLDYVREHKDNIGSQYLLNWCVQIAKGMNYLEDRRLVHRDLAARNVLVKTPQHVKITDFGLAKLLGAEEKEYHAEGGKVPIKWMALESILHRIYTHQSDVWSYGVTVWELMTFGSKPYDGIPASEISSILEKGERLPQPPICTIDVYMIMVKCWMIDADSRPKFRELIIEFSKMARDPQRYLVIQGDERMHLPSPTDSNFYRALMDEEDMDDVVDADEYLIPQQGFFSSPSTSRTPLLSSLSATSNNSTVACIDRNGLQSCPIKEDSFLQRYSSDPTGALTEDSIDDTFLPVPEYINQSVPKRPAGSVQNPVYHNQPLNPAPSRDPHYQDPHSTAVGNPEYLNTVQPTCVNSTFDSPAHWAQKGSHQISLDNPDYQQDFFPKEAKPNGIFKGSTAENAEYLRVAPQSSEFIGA
T4 sequence (Q8IY84 whole entry): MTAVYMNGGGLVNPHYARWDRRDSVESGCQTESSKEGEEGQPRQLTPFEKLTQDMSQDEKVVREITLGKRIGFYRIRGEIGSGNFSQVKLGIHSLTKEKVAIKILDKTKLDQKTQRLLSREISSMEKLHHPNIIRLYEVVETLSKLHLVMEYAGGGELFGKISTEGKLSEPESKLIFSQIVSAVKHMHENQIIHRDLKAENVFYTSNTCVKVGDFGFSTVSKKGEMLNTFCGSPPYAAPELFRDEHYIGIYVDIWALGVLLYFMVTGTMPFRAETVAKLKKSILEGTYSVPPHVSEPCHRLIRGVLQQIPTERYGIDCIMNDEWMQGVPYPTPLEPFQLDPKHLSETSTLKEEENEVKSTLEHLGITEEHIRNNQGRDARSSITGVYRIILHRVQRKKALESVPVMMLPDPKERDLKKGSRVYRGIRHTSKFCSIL
Sequence of MET (P08581 whole entry): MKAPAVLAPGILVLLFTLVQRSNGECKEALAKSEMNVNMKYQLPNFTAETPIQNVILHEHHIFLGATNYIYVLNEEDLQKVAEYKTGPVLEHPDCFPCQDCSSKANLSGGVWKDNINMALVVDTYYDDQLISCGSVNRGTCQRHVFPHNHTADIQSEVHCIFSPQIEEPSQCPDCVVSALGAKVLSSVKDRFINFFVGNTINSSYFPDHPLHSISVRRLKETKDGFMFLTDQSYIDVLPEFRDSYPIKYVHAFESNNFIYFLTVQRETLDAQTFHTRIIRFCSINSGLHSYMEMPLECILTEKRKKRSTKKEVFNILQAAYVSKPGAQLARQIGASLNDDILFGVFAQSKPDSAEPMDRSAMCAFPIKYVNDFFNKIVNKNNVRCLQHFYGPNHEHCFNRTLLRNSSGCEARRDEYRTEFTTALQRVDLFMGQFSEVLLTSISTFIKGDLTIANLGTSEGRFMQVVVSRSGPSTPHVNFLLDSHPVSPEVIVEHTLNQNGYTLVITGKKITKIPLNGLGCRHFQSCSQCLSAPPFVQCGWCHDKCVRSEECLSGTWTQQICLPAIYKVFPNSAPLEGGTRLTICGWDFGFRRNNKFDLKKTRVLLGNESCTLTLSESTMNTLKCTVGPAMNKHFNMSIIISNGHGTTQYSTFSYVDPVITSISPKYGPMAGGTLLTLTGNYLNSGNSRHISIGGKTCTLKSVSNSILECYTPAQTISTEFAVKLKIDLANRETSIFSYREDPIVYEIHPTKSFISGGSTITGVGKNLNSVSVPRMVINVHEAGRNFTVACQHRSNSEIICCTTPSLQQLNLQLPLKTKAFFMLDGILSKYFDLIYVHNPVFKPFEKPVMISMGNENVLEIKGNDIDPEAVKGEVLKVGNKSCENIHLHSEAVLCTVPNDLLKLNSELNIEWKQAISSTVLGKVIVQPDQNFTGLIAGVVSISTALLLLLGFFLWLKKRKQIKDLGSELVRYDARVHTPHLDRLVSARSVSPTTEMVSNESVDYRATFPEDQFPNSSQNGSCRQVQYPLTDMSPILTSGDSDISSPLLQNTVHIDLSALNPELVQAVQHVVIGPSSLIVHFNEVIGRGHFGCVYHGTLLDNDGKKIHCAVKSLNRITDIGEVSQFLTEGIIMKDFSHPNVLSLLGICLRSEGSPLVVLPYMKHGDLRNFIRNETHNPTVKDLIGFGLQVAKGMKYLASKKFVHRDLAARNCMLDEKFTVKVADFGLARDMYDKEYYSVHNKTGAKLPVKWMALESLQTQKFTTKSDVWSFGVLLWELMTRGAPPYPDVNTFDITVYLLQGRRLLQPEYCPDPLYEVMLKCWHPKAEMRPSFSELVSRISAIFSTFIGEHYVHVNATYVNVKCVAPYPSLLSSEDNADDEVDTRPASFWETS

As to `COc1cc2c(cn1)N(C)C(=O)[C@@H](NC(=O)c1nc3n(n1)[C@H](c1ccccc1)CC3)CC2` [GNE684, (S)-N-((S)-7-methoxy-1-methyl-2-oxo-2,3,4,5-tetrahydro-1H-pyrido[3,4-b]azepin-3-yl)-5-phenyl-6,7-dihydro-5H-pyrrolo[1,2-b][1,2,4]triazole-2-carboxamide], the remaining binding at 10 µM on GSK3A came to 63%; on RIPK5, 48%; on NIK it was 100%; on YANK1, 100%; on MAP3K15, 94%; at NIM1, 89%. The remaining binding at 10 µM at MAP3K3 amounted to 98%; at DAPK2, 74%; at FLT3(ITD,D835V), 84%; on TEC it was 100%; at EGFR(T790M), 100%; at PHKG2, 75%. Moreover, the remaining binding at 10 µM at DRAK2 came out at 100%; at KIT(V559D,V654A), 100%; on MET it was 73%; at MRCKA, 100%; at SBK1 it was 100%; on PIK3C2B, 93%. Moreover, the remaining binding at 10 µM at KIT(V559D), at MKNK1 and at TNK2 was 100% each time.
